Experimental data as given in patent publication US11225470B2, “Tetrazolinone compounds and its use as pest control agents” (SUMITOMO CHEMICAL COMPANY, LIMITED, priority 2016, dated 2022).

Columns and labels:
Assay type in all cases: in vivo
[1] = system: cabbage moth (Plutella xylostella); assay: cabbage moth mortality test on cabbage seedling; details: 120 h, 500 ppm spray on cabbage seedling, five second instar larvae, counted after 5 days, read-out: Morality (%)
From the text: Any of the present compounds 1-4, 1-5, 1-6, 3-9, 3-13, 3-17, 3-23, 3-25, 3-26, 3-29, 3-31, 4-1 or 5-3, each of which was made to a formulation according to the similar method to that of Formulation Example 6, was mixed with water so as to be 500 ppm. The mixtures were sprayed to foliar parts of the cabbage seedling (on the developmental stage of the second to third true leaf) that was planted in a container so as to adhere adequately on the leaves of the above-mentioned cabbage. After the spraying, the stem and leaf of the seedling was cut out and then was installed into the container that was covered with the filter paper. Five heads of cabbage moth (Plutella xylostella) at the second instar larval stages were released into the cup. After 5 days, the surviving insects were counted, and the mortality of insects was calculated by the following equation. Morality (%)={1−the number of the surviving insects/5}×100

[2] = system: cotton aphid (Aphis gossypii); assay: cotton aphid test on cucumber seedling; details: 144 h, 500 ppm spray on infested cucumber seedling, counted after 6 days, read-out: Controlling value (%)
[3] = system: tomato late blight fungi (Phytophthora infestans); details: 500 ppm foliar spray, inoculation after 1 day; tomato cv PATIO

SMILES	pest or weed control at 500 ppm [1] [%]	pest or weed control at 500 ppm [2] [%]	lesion area compared to the lesion area in an untreated tomato [3] [%]
CCC(=NN=C(C)c1nc2ccccc2s1)OCc1c(C)cccc1-n1nnn(C)c1=O [1-5]	≥ 80	–	–
CSC(=Nc1ccc(F)cc1)SCc1c(C)cccc1-n1nnn(C)c1=O [4-6]	–	≥ 60	–
CCC(=NN=C1CCSc2ccccc21)OCc1c(C)cccc1-n1nnn(C)c1=O [E-28]	≥ 80	≥ 60	–
C=CCON=C(C)C(C)=NN=C(CC)OCc1c(C)cccc1-n1nnn(C)c1=O [C-2]	≥ 80	≥ 60	–
CSC(=NCc1ccc(C)cc1)SCc1c(C)cccc1-n1nnn(C)c1=O [3-12]	–	≥ 60	–
CCC(=NN=C(C)c1cnc2ccccc2c1)OCc1c(C)cccc1-n1nnn(C)c1=O [D-5]	≥ 80	≥ 60	–
CCC(=NN=C1CCOc2ccccc21)OCc1c(C2CC2)cccc1-n1nnn(C)c1=O [E-14]	≥ 80	≥ 60	–
CCC(=NN=C(C)C(C)=NOCCOC)OCc1c(C)cccc1-n1nnn(C)c1=O [C-14]	≥ 80	≥ 60	–
CCC(=NN=C1COc2ccccc21)OCc1c(C)cccc1-n1nnn(C)c1=O [E-10]	–	≥ 60	–
CCC(=NN=C1CCOc2ccccc21)OCc1c(Cl)cccc1-n1nnn(C)c1=O [E-13]	≥ 80	–	–
CCC(=NN=C1CCc2cccc(F)c21)OCc1c(C)cccc1-n1nnn(C)c1=O [E-5]	≥ 80	–	–
CCON=C(C)C(C)=NN=C(CC)OCc1c(C)cccc1-n1nnn(C)c1=O [A-2]	–	≥ 60	–
COc1ccccc1CN=C(SC)SCc1c(C)cccc1-n1nnn(C)c1=O [3-13]	≥ 80	–	–
CCC(=NN=C1CCOc2cc(OC)ccc21)OCc1c(C)cccc1-n1nnn(C)c1=O [E-30]	≥ 80	≥ 60	–
CCC(=NN=C(C)C(C)=NO)OCc1c(C)cccc1-n1nnn(C)c1=O [B-1]	≥ 80	–	–
CSC(=NC(C)(C)C)SCc1c(C)cccc1-n1nnn(C)c1=O [3-17]	≥ 80	–	–
CC=CCON=C(C)C(C)=NN=C(CC)OCc1c(C)cccc1-n1nnn(C)c1=O [C-3]	≥ 80	≥ 60	–
CCC(=NN=C(C)c1cnccn1)OCc1c(C)cccc1-n1nnn(C)c1=O [1-4]	≥ 80	≥ 60	–
CCC(=NN=C(C)c1ccc2c(ccn2C)c1)OCc1c(C)cccc1-n1nnn(C)c1=O [D-7]	–	≥ 60	–
CCSC(=NCCc1ccccc1)SCc1c(C)cccc1-n1nnn(C)c1=O [3-1]	–	≥ 60	–
CCC(=NN=C(C)C(C)=NOCC#N)OCc1c(C)cccc1-n1nnn(C)c1=O [C-13]	≥ 80	–	–

SMILES	pest or weed control at 500 ppm [1] [%]	pest or weed control at 500 ppm [2] [%]	lesion area compared to the lesion area in an untreated tomato [3] [%]
CCc1ccc(N=C(SC)SCc2c(C)cccc2-n2nnn(C)c2=O)cc1 [3-8]	–	≥ 60	–
CCC(=NN=C(C)C(C)=NOCc1cccc(C)c1)OCc1c(C)cccc1-n1nnn(C)c1=O [C-11]	≥ 80	≥ 60	–
CCC(=NN=C1CCc2cc(F)ccc21)OCc1c(C)cccc1-n1nnn(C)c1=O [E-3]	–	≥ 60	–
CCC(=NN=C1CCOc2ccc(C)cc21)OCc1c(C)cccc1-n1nnn(C)c1=O [E-26]	≥ 80	≥ 60	–
CSC(=NCCc1ccccc1Cl)SCc1c(C)cccc1-n1nnn(C)c1=O [3-31]	≥ 80	–	–
CSC(=NCc1ccccc1)SCc1c(C)cccc1-n1nnn(C)c1=O [3-9]	≥ 80	–	–
CCC(=NN=C(C)c1cc2ccccc2n1C)OCc1c(C)cccc1-n1nnn(C)c1=O [D-6]	–	≥ 60	–
CCC(=NN=C(C)c1ccc2scnc2c1)OCc1c(C)cccc1-n1nnn(C)c1=O [D-3]	≥ 80	≥ 60	–
CSC(=Nc1cccc(C(F)(F)F)c1)SCc1c(C)cccc1-n1nnn(C)c1=O [4-1]	≥ 80	–	–
CCC(=NN=C(C)c1ccc2c(c1)OCO2)OCc1c(C)cccc1-n1nnn(C)c1=O [D-8]	≥ 80	≥ 60	–
CCC(=NN=C1CC[S+]([O-])c2ccccc21)OCc1c(C)cccc1-n1nnn(C)c1=O (stereo not shown) [E-29]	≥ 80	≥ 60	–
CCC(=NN=C1CCOc2ccccc21)OCc1c(OC)cccc1-n1nnn(C)c1=O [E-12]	≥ 80	≥ 60	–
CCC(=NN=C(C)C(C)=NOCc1cccc(OC)c1)OCc1c(C)cccc1-n1nnn(C)c1=O [C-10]	≥ 80	≥ 60	–
CCC(=NN=C1CCOc2c(F)ccc(F)c21)OCc1c(C)cccc1-n1nnn(C)c1=O [E-27]	≥ 80	≥ 60	–
CCC(=NN=C(C)C(C)=NOCc1ccc(OC)cc1)OCc1c(C)cccc1-n1nnn(C)c1=O [C-12]	≥ 80	≥ 60	–
CCC(=NN=C(C)c1ccn(C)n1)OCc1c(C)cccc1-n1nnn(C)c1=O [D-19]	≥ 80	–	–
CSC(=NCc1cccc(C)c1)SCc1c(C)cccc1-n1nnn(C)c1=O [3-11]	–	≥ 60	–
CCC(=NN=C1CCc2ccc(F)cc21)OCc1c(C)cccc1-n1nnn(C)c1=O [E-4]	–	≥ 60	–
CSC(=NCCCCc1ccccc1)SCc1c(C)cccc1-n1nnn(C)c1=O [3-29]	≥ 80	≥ 60	–
CCC(=NN=C(C)c1cc2ccccc2s1)OCc1c(C)cccc1-n1nnn(C)c1=O [1-3]	–	≥ 60	–
CCC(=NN=C1CCc2c(F)cccc21)OCc1c(C)cccc1-n1nnn(C)c1=O [E-2]	–	≥ 60	–

SMILES	pest or weed control at 500 ppm [1] [%]	pest or weed control at 500 ppm [2] [%]	lesion area compared to the lesion area in an untreated tomato [3] [%]
CCC(=NN=C(C)C(C)=NOCc1ccccc1)OCc1c(C)cccc1-n1nnn(C)c1=O [C-1]	≥ 80	≥ 60	–
C#CCON=C(C)C(C)=NN=C(CC)OCc1c(C)cccc1-n1nnn(C)c1=O [C-5]	≥ 80	–	–
CC(=NN=C(OCc1c(C)cccc1-n1nnn(C)c1=O)N(C)C)c1ccc(F)cc1 [1-6]	≥ 80	–	–
CSC(=NCC1CCOCC1)SCc1c(C)cccc1-n1nnn(C)c1=O [3-23]	≥ 80	–	–
CCC(=NN=C1CCOc2cc(F)cc(F)c21)OCc1c(C)cccc1-n1nnn(C)c1=O [E-24]	≥ 80	≥ 60	–
CCC(=NN=C1CCc2ccc(OC)cc21)OCc1c(C)cccc1-n1nnn(C)c1=O [E-8]	–	≥ 60	–
CCC(=NN=C(C)C(C)=NOCc1ccccc1C)OCc1c(C)cccc1-n1nnn(C)c1=O [C-7]	–	≥ 60	–
CCC(=NN=C(C)c1ccc2c(c1)CCO2)OCc1c(C)cccc1-n1nnn(C)c1=O [D-2]	≥ 80	≥ 60	–
CCC(=NN=C1CCCc2ccccc21)OCc1c(C)cccc1-n1nnn(C)c1=O [E-25]	≥ 80	≥ 60	–
CCC(=NN=C1CCOc2cccc(F)c21)OCc1c(C)cccc1-n1nnn(C)c1=O [E-21]	≥ 80	–	–
CCC(=NN=C(C)c1cccc2c1OC(F)(F)O2)OCc1c(C)cccc1-n1nnn(C)c1=O [D-9]	–	≥ 60	–
CCC(=NN=C(C)c1c(C)nn(C)c1Cl)OCc1c(C)cccc1-n1nnn(C)c1=O [D-1]	≥ 80	≥ 60	–
CCC(=NN=C1CCOc2ccccc21)OCc1c(C)cccc1-n1nnn(C)c1=O [E-11]	–	≥ 60	–
CSC(=NCCc1cccc(F)c1)SCc1c(C)cccc1-n1nnn(C)c1=O [3-26]	≥ 80	–	–
CCC(=NN=C1CCc2c(OC)cccc21)OCc1c(C)cccc1-n1nnn(C)c1=O [E-6]	≥ 80	≥ 60	≤ 30
CCC(=NN=C(C)c1cc2ccccc2o1)OCc1c(C)cccc1-n1nnn(C)c1=O [1-2]	–	≥ 60	–
CCC(=NN=C(C)C(C)=NOC(C)C)OCc1c(C)cccc1-n1nnn(C)c1=O [A-3]	≥ 80	≥ 60	–
CC(=NOCc1c(C)cccc1-n1nnn(C)c1=O)OCCCc1ccccc1 [5-3]	≥ 80	≥ 60	–
CSC(=NCCc1ccccc1F)SCc1c(C)cccc1-n1nnn(C)c1=O [3-25]	≥ 80	–	–
